Experimental data as given in paper PMC6960228, “Ethoxysanguinarine, a Novel Direct Activator of AMP-Activated Protein Kinase, Induces Autophagy and Exhibits Therapeutic Potential in Breast Cancer Cells” (Frontiers in Pharmacology, 2020).

Test system: ACC, Glut1, Glut3, and Glut4 in BC cells
Experiment: Western blot of energy metabolism proteins
Type: cell-based, human
Method: Cells were lysed in radioimmunoprecipitation assay buffer containing 50 mM Tris, pH 8.0, 150 mM NaCl, 0.1% SDS, 0.5% sodium deoxycholate, 1% NP-40, 1 mM DTT, 1 mM NaF, 1 mM sodium orthovanadate, 1 mM phenylmethylsulfonyl fluoride (PMSF; Sigma-Aldrich; Merck KGaA), and 1% protease inhibitors cocktail (EMD Millipore, Billerica, MA, USA). Protein concentration was determined using the Bradford method. Equal amounts of sample (25 µg) were separated by SDS-PAGE (8–12% gels). Electrophoresed proteins were then transferred onto polyvinylidene fluoride membranes (EMD Millipore, Billerica, MA, USA). The membranes were blocked with 5% skimmed milk in Tris-buffered saline at room temperature for 1 h. Following blocking, membranes were incubated overnight at 4°C with primary antibodies and then rinsed with Tris-buffered saline with Tween 20. […]

CCOC1c2c(ccc3c2OCO3)-c2ccc3cc4c(cc3c2N1C)OCO4 (centres unmarked) [Eth, Ethoxysanguinarine]
expression and activation of ACC: no significant effect
expression of Glut1, Glut3, and Glut4 (MCF-7 or MDA-MB-231 cells, 24 h): downregulated
